This assay relates to B6C3F1 mice, Lewis lung carcinoma iv, survival T/C. In words: NCI In Vivo Anticancer Drug Screen. Data for tumor model Lewis Lung Carcinoma (intravenous) in B6C3F1 mice. The conditions noted are these: endpoint: median survival time, higher = longer survival. The essentials: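 Read-out is survival, expressed as the treated-group measurement over the vehicle control-group measurement. Animals bore a transplantable tumor and were given compound.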

Where [1] appears, read: dose: 25.0 mg/kg/injection, schedule: Q01DX009 (ip), vehicle: saline.
Where [2] appears, read: dose: 50.0 mg/kg/injection, schedule: Q01DX009 (ip), vehicle: saline.
Where [3] appears, read: dose: 6.25 mg/kg/injection, schedule: Q01DX009 (ip), vehicle: saline with Tween-80.
Setting [4] is: dose: 12.5 mg/kg/injection, schedule: Q01DX009 (ip), vehicle: saline with Tween-80.
The mark [5] stands for this setting: dose: 25.0 mg/kg/injection, schedule: Q01DX009 (ip), vehicle: saline with Tween-80.
[6] abbreviates: dose: 50.0 mg/kg/injection, schedule: Q01DX009 (ip), vehicle: saline with Tween-80.
The mark [7] stands for this setting: dose: 100.0 mg/kg/injection, schedule: Q01DX009 (ip), vehicle: saline with Tween-80.
Where [8] appears, read: dose: 200.0 mg/kg/injection, schedule: Q01DX009 (ip), vehicle: saline with Tween-80.
The mark [9] stands for this setting: dose: 25.0 mg/kg/injection, schedule: Q01DX009 (ip), vehicle: Klucel (hydroxypropylcellulose) (HPC).

SMILES strings stand for the structures. “And” between values parts separate entries of the source, which are not always exact repeats. Identical values can stand only once. Inconclusive results and toxic doses are left out.

This note sets out measurements from PubChem BioAssay AID276 (DTP/NCI, 2004).

Turning to `CC(=O)OC1C(O)C(C)OC(OC2C(OC(=O)C3CCC4C(C3)OC3(CC(OC(=O)/C=C/c5ccccc5)C(C)CO3)C43CO3)OC(C)C(O)C2OC(C)=O)C1O` (centres undefined), the T/C reads like this: (dose: 1.0 mg/kg/injection, schedule: Q01DX009 (ip), vehicle: distilled water + Tween-80) 105 % of control; (dose: 2.0 mg/kg/injection, schedule: Q01DX009 (ip), vehicle: distilled water + Tween-80) 99 % of control; (dose: 4.0 mg/kg/injection, schedule: Q01DX009 (ip), vehicle: distilled water + Tween-80) 100 % of control; (dose: 8.0 mg/kg/injection, schedule: Q01DX009 (ip), vehicle: distilled water + Tween-80) 102 % of control; (dose: 16.0 mg/kg/injection, schedule: Q01DX009 (ip), vehicle: distilled water + Tween-80) 91 % of control.
Take `C=C(C)C1C2CC3(C)C4(CO4)C4OC4C3(O)C1C(=O)O2` (centres undefined): the T/C reads like this: (dose: 0.25 mg/kg/injection, schedule: Q01DX008 (ip), vehicle: Klucel (hydroxypropylcellulose) (HPC)) 108 % of control; (dose: 0.5 mg/kg/injection, schedule: Q01DX008 (ip), vehicle: Klucel (hydroxypropylcellulose) (HPC)) 102 % of control; (dose: 1.0 mg/kg/injection, schedule: Q01DX008 (ip), vehicle: Klucel (hydroxypropylcellulose) (HPC)) 108 % of control; (dose: 2.0 mg/kg/injection, schedule: Q01DX008 (ip), vehicle: Klucel (hydroxypropylcellulose) (HPC)) 105 % of control.
For `CCCCNCCCNCCCNC(=O)c1csc(-c2csc(CCNC(=O)C(NC(=O)C(C)C(O)C(C)NC(=O)C(NC(=O)c3nc(C(CC(N)=O)NCC(N)C(N)=O)nc(N)c3C)C(OC3OC(CO)C(O)C(O)C3OC3OC(CO)C(O)C(OC(N)=O)C3O)c3cnc[nH]3)C(C)O)n2)n1` (centres undefined), the T/C is 112 % of control (dose: 2.0 mg/kg/injection, schedule: Q01DX009 (ip), vehicle: saline); 155 % of control (dose: 8.0 mg/kg/injection, schedule: Q01DX009 (ip), vehicle: saline); 184 % of control (dose: 16.0 mg/kg/injection, schedule: Q01DX009 (ip), vehicle: saline).
Turning to `CCCCCC[C@@H](O)C/C=C\CCCCCCCC(=O)OCCO`, the T/C was 91 % of control under setting [1]; 100 % of control under setting [2]; 99 % of control (dose: 100.0 mg/kg/injection, schedule: Q01DX009 (ip), vehicle: saline); 101 % of control (dose: 200.0 mg/kg/injection, schedule: Q01DX009 (ip), vehicle: saline); 99 % of control (dose: 400.0 mg/kg/injection, schedule: Q01DX009 (ip), vehicle: saline); 100 % of control (dose: 800.0 mg/kg/injection, schedule: Q01DX009 (ip), vehicle: saline).
Consider `FC(F)(F)c1nc2nc(Cl)c(Cl)nc2[nH]1`, for which the T/C reads like this: under setting [3], 98 % of control; under setting [4], 106 % of control; under setting [5], 106 % of control; under setting [6], 93 % of control.
With `CN(C)CCOc1ccc2c(c1)C/C(=C/c1ncc([N+](=O)[O-])n1C)C2=O`, the T/C under setting [3] was 102 % of control, the T/C under setting [4] is 88 % of control, the T/C under setting [5] is 104 % of control and the T/C under setting [6] is 100 % of control.
Consider `COc1cccc2c1C(=O)c1c(O)c3c(c(O)c1C2=O)CC(O)(C(=O)CO)CC3OC1CC(N)C(O)C(C)O1` (centres undefined), for which the T/C was 110 % of control (dose: 1.56 mg/kg/injection, schedule: Q01DX009 (ip), vehicle: saline); 107 % of control (dose: 1.87 mg/kg/injection, schedule: Q01DX009 (ip), vehicle: water); 109 % of control (dose: 3.12 mg/kg/injection, schedule: Q01DX009 (ip), vehicle: saline); 107 % of control (dose: 3.75 mg/kg/injection, schedule: Q01DX009 (ip), vehicle: water); 101 % of control (dose: 4.5 mg/kg/injection, schedule: Q01DX009 (ip), vehicle: water); 123 % of control (dose: 6.25 mg/kg/injection, schedule: Q01DX009 (ip), vehicle: saline). For the same molecule, the T/C (dose: 7.5 mg/kg/injection, schedule: Q01DX009 (ip), vehicle: water) is 109 % of control; the T/C (dose: 9.0 mg/kg/injection, schedule: Q01DX009 (ip), vehicle: water) was 112 % of control; the T/C (dose: 15.0 mg/kg/injection, schedule: Q01DX009 (ip), vehicle: water) was 119 % of control; the T/C (dose: 18.0 mg/kg/injection, schedule: Q01DX009 (ip), vehicle: water) was 123 % of control; the T/C under setting [1] is 119 % of control; the T/C under setting [2] was 90 % of control.
As for `O=C(CCCCCCC(=O)ON1C(=O)CCC1=O)ON1C(=O)CCC1=O`, the T/C is 94 % of control under setting [5], 94 % of control under setting [6] and 93 % of control under setting [7].
As to `CCCCCCOC(CN(C)C)C(Cl)(Cl)Cl` (centres undefined), the T/C was 106 % of control under setting [4]; 96 % of control under setting [5]; 90 % of control under setting [6]; 95 % of control under setting [7]; 95 % of control under setting [8].
As to `O=NN(CCCl)C(=O)NCCO`, the T/C runs as follows: (dose: 0.78 mg/kg/injection, schedule: Q01DX009 (ip), vehicle: water) 107 % of control; (dose: 3.12 mg/kg/injection, schedule: Q01DX009 (ip), vehicle: water) 184 % of control and 213 % of control and 215 % of control; (dose: 6.25 mg/kg/injection, schedule: Q01DX009 (ip), vehicle: water) 178 % of control and 312 % of control; (dose: 12.5 mg/kg/injection, schedule: Q01DX009 (ip), vehicle: water) 90 % of control.
Consider `O=C1N[C@H]2[C@H](CS[C@H]2CCCCC(=O)N(CCP(c2ccccc2)c2ccccc2)CCP(c2ccccc2)c2ccccc2)N1`, for which the T/C is, setting by setting: under setting [9], 93 % of control and 114 % of control; (dose: 50.0 mg/kg/injection, schedule: Q01DX009 (ip), vehicle: Klucel (hydroxypropylcellulose) (HPC)) 98 % of control and 88 % of control; (dose: 100.0 mg/kg/injection, schedule: Q01DX009 (ip), vehicle: Klucel (hydroxypropylcellulose) (HPC)) 102 % of control; (dose: 200.0 mg/kg/injection, schedule: Q01DX009 (ip), vehicle: Klucel (hydroxypropylcellulose) (HPC)) 92 % of control and 98 % of control.
On to `N#C[Se-].c1ccc([Te+](c2ccccc2)c2ccccc2)cc1`, for which the T/C by setting is: (dose: 1.56 mg/kg/injection, schedule: Q01DX009 (ip), vehicle: Klucel (hydroxypropylcellulose) (HPC)) 97 % of control; (dose: 3.12 mg/kg/injection, schedule: Q01DX009 (ip), vehicle: Klucel (hydroxypropylcellulose) (HPC)) 97 % of control; (dose: 6.25 mg/kg/injection, schedule: Q01DX009 (ip), vehicle: Klucel (hydroxypropylcellulose) (HPC)) 97 % of control; (dose: 12.5 mg/kg/injection, schedule: Q01DX009 (ip), vehicle: Klucel (hydroxypropylcellulose) (HPC)) 100 % of control; under setting [9], 86 % of control.
Regarding `CCCC(=O)O.CCCC(=O)O.CCCC(=O)O.CCCC(=O)O.[Rh].[Rh]`, the T/C is 95 % of control (dose: 0.03 mg/kg/injection, schedule: Q01DX009 (ip), vehicle: saline + alcohol); 97 % of control and 100 % of control (dose: 0.06 mg/kg/injection, schedule: Q01DX009 (ip), vehicle: saline + alcohol); 93 % of control and 100 % of control (dose: 0.12 mg/kg/injection, schedule: Q01DX009 (ip), vehicle: saline + alcohol); 91 % of control and 102 % of control (dose: 0.25 mg/kg/injection, schedule: Q01DX009 (ip), vehicle: saline + alcohol); 92 % of control and 97 % of control (dose: 0.5 mg/kg/injection, schedule: Q01DX009 (ip), vehicle: saline + alcohol); 91 % of control and 96 % of control (dose: 1.0 mg/kg/injection, schedule: Q01DX009 (ip), vehicle: saline + alcohol).
For the molecule `O=NN(CCCl)C(=O)Oc1cc(Cl)c(Cl)cc1Cl`, the T/C by setting is: (dose: 11.56 mg/kg/injection, schedule: Q01DX009 (ip), vehicle: Klucel (hydroxypropylcellulose) (HPC)) 105 % of control; (dose: 23.13 mg/kg/injection, schedule: Q01DX009 (ip), vehicle: Klucel (hydroxypropylcellulose) (HPC)) 101 % of control; (dose: 46.25 mg/kg/injection, schedule: Q01DX009 (ip), vehicle: Klucel (hydroxypropylcellulose) (HPC)) 122 % of control.
Take `CN(C)P(=O)(Oc1ccccc1)N(C)C`: the T/C under setting [4] was 113 % of control; the T/C under setting [5] was 98 % of control; the T/C under setting [6] was 101 % of control; the T/C under setting [7] was 115 % of control; the T/C under setting [8] is 101 % of control; the T/C (dose: 400.0 mg/kg/injection, schedule: Q01DX009 (ip), vehicle: saline with Tween-80) was 100 % of control.
